Experiments:
[1] = system: renal tubular cells (RTC); assay: In vitro inflammation model: renal tubular cells co-cultivated with bacterial lysate-activated leukocytes; type: cell-based, rat
Description: Kidneys from 1-3 day old rats were excised under aseptic conditions. The tissue was blended and dissociated by collagenase treatment (0.5%, 30 min at 37° C.). The final suspension was centrifuged for 5 min at 50 g. The pellet was resuspended in about 10 ml of DMEM/F12 (Gibco, USA) supplemented with 10% FCS (Gibco, USA) and kept for 2 min, after which the supernatant was transferred to another tube and the pellet was repeatedly resuspended. After 10 min, the renal tubules were pelleted and dissociated cells remaining in the suspension were discarded. The pellet was resuspended in DMEM/F12 with 10% FCS and seeded onto 24-well plates or onto coverslips placed in 35-mm glass-bottom Petri dishes.
E. coli strain No. 85 was cultured overnight in a cultivation medium containing 1% tryptone, 0.5% yeast extract and 1% NaCl (Sigma-Aldrich, USA). The medium, containing roughly 10^9 colony-forming units (CFU) per ml, was pelleted at 300 g for 3 min. The bacterial lysate was prepared by diluting 30 ml of an overnight (ON) culture and diluting the precipitate in 3 ml of 0.9% NaCl followed by autoclaving for 1.5 hr at 120° C.
5 ml heparinized blood collected from the jugular vein of adult male rats was carefully layered over 5 ml of Ficoll-Urografin (density of 1.077 g/cm^3), and centrifuged for 30 min at 200 g. This procedure results in erythrocyte pelleting, while the mononuclear fraction of leukocytes forms an interphase ring on the Ficoll surface, which was carefully collected. Leukocytes were transferred into another tube and centrifuged for 3 min at 200 g. The resultant pellet was resuspended in 5 ml of DMEM/F12. After cell counting in a hemocytometer, the cells were diluted to a final concentration of about 1×10^5 cells per ml.
In a two-day old renal cell culture, the medium was substituted with DMEM/F12 (400 μl per well, 1600 μl per dish), supplemented with (depending on the purpose): GSK-3β inhibitor LiCl (9 mM) (Sigma-Aldrich, USA), water-soluble antioxidant Trolox (50 μM, 100 μM) (Sigma-Aldrich, USA), MTAs 10-(6-plastoquinonyl)decyl-triphenylphosphonium (SkQ1), synthesized according to Antonenko et al. (2008) Biochemistry (Mosc) 73:1273-87), 10 nM, 100 nM), and 10-(6′-plastoquinonyl) decylrhodamine 19 SkQR1), synthesized according to Antonenko (2008), (1 nM, 10 nM, or 100 nM). Renal cells were incubated for 2 hr in this medium, followed by supplementation with leukocytes or neutrophils in DMEM/F12, or DMEM/F12, alone, in the control sample (400 μl per well, 1600 μl per dish). Simultaneously, the bacterial lysate or lipopolysaccharide (100 ng/ml, LPS, Sigma-Aldrich, USA) solution in DMEM/F12 and DMEM/F12 alone in the control sample (100 μl per well, 400 μl per dish) were added. Renal cells, leukocytes (neutrophils) were co-cultivated for 24 or 48 hr with bacterial lysate or LPS. Cell death (both necrotic and apoptotic) rate was evaluated using Annexin-V FITC Kit (Invitrogen, USA).
The ROS-sensitive fluorescent probe 2,7-DCF-DA (Molecular Probes, USA) dissolved in DMEM/F12 without bicarbonate (final concentration 10 μM) was added to renal cells (500 μl per well of 24-well plate, 2 ml per dish) and incubated for 15 min at 37° C. followed by a wash with DMEM/F12 without bicarbonate. MDA was determined as in (Mihara and Uchiyama (1978) Anal. Biochem. 86:271-8). Fluorescent probe, DAF-2-DA (Calbiochem, San Diego, Calif., USA) was used for NO determination in living cells. The procedure was the same as for 2,7-DCF-DA. The nitrite/nitrate concentration (as products of NO oxidation) in culture media was determined using Nitrite/Nitrate Assay Kit (Sigma-Aldrich, USA). TNFα was determined using the kit Rat TNFα ELISA Ready-SET-Go (Ebioscience, USA).
Renal cells were imaged with an LSM510 inverted confocal microscope (Carl Zeiss Inc., Jena, Germany) with excitation at 488 nm and emission collected at 500 nm-530 nm with a pinhole diameter of 150 μm. Images were processed using ImageJ software (NIH, Bethesda, Md., USA).

[2] = system: Human endothelial cell line EA.hy926; assay: High-glucose endothelium damage, immunoblotting detection of VE-cadherin; type: cell-based; details: 2 nM and 20 nM SkQ1 pre-incubation 4 d; 45 mM D-glucose 2 d; vs vehicle control
Source text: Human endothelial cell line EA.hy926 (ATCC Collection; catalog number CRL-2922) was used as a model of the endothelium vessel damage occurring during inflammatory process and/or diabetes. This cell line is similar to primary HUVEC cell line (Edgell et al. (1983) PNAS, 80(12):3734-7; Edgell et al. (1990) In Vitro Cell Dev. Biol., 26(12):1167-72) and widely used as a relevant model for inflammation studies (Riesbeck et al. (1998) Clin. Vaccine Immunol., 5:5675-682).
Accordingly, human endothelial cells EA.hy926 were pre-incubated with 2 nM and 20 nM of SkQ1 solution in Dulbecco's Modified Eagle's Medium (DMEM) supplemented with 10% of fetal serum (Example 1) for 4 d. Cells were then incubated 2 d with DMEM medium containing 1% FBS and 5 mM D-glucose. The cells were then incubated 2 d with 45 mM D-glucose and were then used for immunoblotting detection of VE-cadherin.

Q: For CC1=C(C)C(=O)C(CCCCCCCCCC[P+](c2ccccc2)(c2ccccc2)c2ccccc2)=CC1=O [SkQ1, 10-(6-plastoquinonyl)decyl-triphenylphosphonium], which “ROS production in renal cells (DCF fluorescence)” value ([1]; 10 nM, pretreatment 2 hr, co-cultivation with activated leukocytes) is on record?
A: suppression of ROS production after co-cultivation with activated leukocytes to levels close to those observed on controls

Q: What about the “renal cell death (Annexin V-positive)” value ([1]; 48 hr exposure to activated leukocytes, pre-incubation with drug) of the same compound?
A: more pronounced than that afforded by the traditional water-soluble antioxidant, Trolox

Q: What about the “VE-cadherin downregulation induced by high glucose” value [2] of the same compound?
A: prevents
